The values that follow come from patent US20260166039A1 (SCHRÖDINGER, INC., priority 2022, published 2026).

Where two headings read alike, the source gives them in different places.

For orientation: IC50 means the concentration needed to halve the response being measured.

Test [1] has as its system phosphorylation of Cdc2 Y15 (Wee1 substrate) in A427 cells. Put plainly: Phosphorylated Cdc2 MSD Electrochemiluminescence Assay. The class given is cell-based. The conditions noted are these: Homo sapiens. Summed up: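 A427 cells (RPMI 1640, 10% FBS) treated 20 h after plating with 3-fold serial compound dilutions, in duplicate, 37 °C, 5% CO2; total incubation 6 h. Lysate Cdc2 pY15 read by MSD electrochemiluminescence sandwich immunoassay; % remaining signal normalised to DMSO (high) and reference Wee1 inhibitor (low) controls.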

In the next test the target is T1, Wee1 kinase domain (Homo sapiens, UniProt P30291).
T1 construct: Wee1 kinase domain was purchased from Carna (catalog #05-177); purchased Carna 05-177
Briefly: Wee1 Kinase Biochemical Assay (ADP-Glo). The conditions noted are these: 15 uM ATP. Summed up: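 Poly(Lys,Tyr 4:1) phosphorylation by the kinase domain is followed as ADP output (ADP-Glo) after 4 h at 25 °C, with ATP at 15 uM. Values are percent inhibition between vehicle and full-inhibition controls.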
(ADP-Glo first removes unused ATP, then detects ADP through luciferase.)

Where [2] appears, read: A-427, class symbols, read-out: A427 pCDC2 MSD IC50.
[3] abbreviates: class symbols, 1 nM Wee1 enzyme, 4 hours at 25° C.

T1 sequence (P30291 299-569 limits assumed): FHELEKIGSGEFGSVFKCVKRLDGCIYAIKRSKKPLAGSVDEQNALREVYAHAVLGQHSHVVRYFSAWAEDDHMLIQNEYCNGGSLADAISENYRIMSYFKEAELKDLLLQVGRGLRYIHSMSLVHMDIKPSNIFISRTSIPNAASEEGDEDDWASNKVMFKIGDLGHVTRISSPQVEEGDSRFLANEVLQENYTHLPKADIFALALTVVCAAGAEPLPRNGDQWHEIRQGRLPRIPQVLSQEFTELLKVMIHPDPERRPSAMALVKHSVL

As for `CN1CCN(c2ccc(Nc3ncc4c(n3)N(c3ccn(C5CC5)n3)[C@@H]3CC(C)(C)OC[C@]43C)cc2)CC1` (single isomer, unassigned) [Example 739], the IC50 in test [1] (setting [2]) was 1000 to 10000 nM; against Wee1 kinase domain (setting [3]) it was less than 10 nM.
For the compound `CNCc1cccc(N2c3nc(Nc4ccc(C5CCOCC5)cc4)ncc3[C@@]3(C)COC(C)(C)C[C@@H]23)n1` (single isomer, unassigned) [Example 35], the IC50 is 100 to 1000 nM in test [1] (A-427, pCDC2 MSD) and less than 10 nM against Wee1 kinase domain (Wee1 kinase domain, ADP-Glo).
As to `CN1CC2(C1)CN(c1ccc(Nc3ncc4c(n3)N(c3cccc(C(C)(C)O)n3)[C@@H]3CC(C)(C)OC[C@]43C)cc1)C2` (single isomer, unassigned) [Example 443], the IC50 in test [1] (setting [2]) is 100 to 1000 nM; against Wee1 kinase domain (setting [3]) it was less than 10 nM.
In the case of `Cc1cc(Nc2ncc3c(n2)N(c2cccc(C(C)(C)O)n2)[C@@H]2CC(C)(C)OC[C@]32C)ccc1N1CCN(C)CC1` (single isomer, unassigned) [Example 9], the half-maximal inhibitory concentration (IC50) in test [1] (A-427, pCDC2 MSD) was 100 to 1000 nM; at Wee1 kinase domain (Wee1 kinase domain, ADP-Glo), less than 10 nM.
For `CC1(C)C[C@@H]2N(c3cccc(N=S(C)(C)=O)n3)c3nc(Nc4ccc([C@]5(C)CCNC5)cc4)ncc3[C@]2(C)CO1` (single isomer, unassigned) [Example 173], the IC50 was less than 100 nM in test [1] (A-427, pCDC2 MSD) and less than 10 nM on Wee1 kinase domain (Wee1 kinase domain, ADP-Glo).
Consider `CNCc1cccc(N2c3nc(Nc4ccc([C@]5(C)CCN(C)C5=O)cc4)ncc3[C@@]3(C)COC(C)(C)C[C@@H]23)n1` (single isomer, unassigned) [Example 78], for which the IC50 is 100 to 1000 nM in test [1] (A-427, pCDC2 MSD) and less than 10 nM at Wee1 kinase domain (Wee1 kinase domain, ADP-Glo).
On to `CN1C[C@@H]2C[C@H]1CN2c1ccc(Nc2ncc3c(n2)N(c2cccc(N=S(C)(C)=O)n2)[C@@H]2CC(C)(C)OC[C@]32C)cc1F` (single isomer, unassigned) [Example 180], for which the IC50 in test [1] (A-427, pCDC2 MSD) was 100 to 1000 nM; on Wee1 kinase domain (Wee1 kinase domain, ADP-Glo), less than 10 nM.
As for `CN1CC[C@@](C)(c2ccc(Nc3ncc4c(n3)N(c3cccc(N=S(C)(C)=O)n3)[C@@H]3CC(C)(C)OC[C@]43C)cc2)C1` (single isomer, unassigned) [Example 169], the IC50 in test [1] (A-427, pCDC2 MSD) was less than 100 nM; at Wee1 kinase domain (Wee1 kinase domain, ADP-Glo), less than 10 nM.
Turning to `CN[C@@H](C)c1cccc(N2c3nc(Nc4ccn(C5CCOCC5)c(=O)c4)ncc3[C@@]3(C)COC(C)(C)C[C@@H]23)n1` (single isomer, unassigned) [Example 390], the IC50 was 100 to 1000 nM in test [1] (A-427, pCDC2 MSD) and less than 10 nM at Wee1 kinase domain (Wee1 kinase domain, ADP-Glo).
With `CN1CCC(n2ccc(Nc3ncc4c(n3)N(c3cccc(C(C)(C)O)n3)[C@@H]3CC(C)(C)OC[C@]43C)cc2=O)CC1` (single isomer, unassigned) [Example 810], the IC50 in test [1] (setting [2]) was 100 to 1000 nM; at Wee1 kinase domain (setting [3]), less than 10 nM.
Take `CN1[C@@H]2C[C@H]1CN(c1ccc(Nc3ncc4c(n3)N(c3cccc(N=S(C)(C)=O)n3)[C@@H]3CC(C)(C)OC[C@]43C)cc1)C2` (single isomer, unassigned) [Example 506]: the figures for the IC50 (in test [1] (setting [2]); at Wee1 kinase domain (setting [3])) were 100 to 1000 nM and less than 10 nM, respectively.
Regarding `CN1CC[C@](C)(c2ccc(Nc3ncc4c(n3)N(c3cccc(N=S(C)(C)=O)n3)[C@@H]3CC(C)(C)OC[C@]43C)cc2)C1` (single isomer, unassigned) [Example 168], the IC50 in test [1] (A-427, pCDC2 MSD) is less than 100 nM; against Wee1 kinase domain (Wee1 kinase domain, ADP-Glo), less than 10 nM.
On the same counts, the results for `CN1CC[C@@H](c2ccc(Nc3ncc4c(n3)N(c3cccc(N=S(C)(C)=O)n3)[C@@H]3CC(C)(C)OC[C@]43C)cc2)C1` (single isomer, unassigned) [Example 129] are less than 100 nM and less than 10 nM.
On to `CN1CCN(c2ccc(Nc3ncc4c(n3)N(c3cccc(N5CCCC5=O)n3)[C@@H]3CC(C)(C)OC[C@]43C)cc2)CC1` (single isomer, unassigned) [Example 587], for which the IC50 was 100 to 1000 nM in test [1] (setting [2]) and less than 10 nM on Wee1 kinase domain (setting [3]).
In the case of `Cc1cc(Nc2ncc3c(n2)N(c2cccc(C(C)(C)O)n2)[C@@H]2CC(C)(C)OC[C@]32C)ccc1N1C[C@H]2C[C@@H]1CN2C` (single isomer, unassigned) [Example 425], the figures for the IC50 (in test [1] (setting [2]); against Wee1 kinase domain (setting [3])) were 100 to 1000 nM and less than 10 nM, respectively.
Take `CN1CC2(C1)CN(c1ccc(Nc3ncc4c(n3)N(c3cccc(N5CCCC5=O)n3)[C@@H]3CC(C)(C)OC[C@]43C)cc1)C2` [Example 690, 1-(6-((4bR,8aR)-4b,7,7-trimethyl-2-((4-(6-methyl-2,6-diazaspiro[3.3]heptan-2-yl)phenyl)amino)-4b,7,8,8a-tetrahydropyrano[3′,4′:4,5]pyrrolo[2,3-d]pyrimidin-9(5H)-yl)pyridin-2-yl)pyrrolidin-2-one]: the IC50 in test [1] (setting [2]) was 100 to 1000 nM; on Wee1 kinase domain (setting [3]) it was less than 10 nM.
For `CNCc1cccc(N2c3nc(Nc4ccc(N5CCOCC5)c(C)c4)ncc3[C@@]3(C)COC(C)(C)C[C@@H]23)n1` (single isomer, unassigned) [Example 26], the IC50 in test [1] (A-427, pCDC2 MSD) was 100 to 1000 nM; on Wee1 kinase domain (Wee1 kinase domain, ADP-Glo), less than 10 nM.
`CN=[S@](C)(=O)c1cccc(N2c3nc(Nc4ccc(C5CCN(C)CC5)cc4)ncc3[C@@]3(C)COC(C)(C)C[C@@H]23)n1` (single isomer, unassigned) [Example 751]: the IC50 in test [1] (setting [2]) was 100 to 1000 nM; at Wee1 kinase domain (setting [3]), less than 10 nM.
`CN[C@H](C)c1cccc(N2c3nc(Nc4ccc(N5CCOCC5)cc4)ncc3[C@@]3(C)COC(C)(C)C[C@@H]23)n1` (single isomer, unassigned) [Example 549]: the IC50 in test [1] (setting [2]) is less than 100 nM; against Wee1 kinase domain (setting [3]), less than 10 nM.
Turning to `CN1C[C@@H]2C[C@H]1CN2c1ccc(Nc2ncc3c(n2)N(c2cccc(N4CCOC4=O)n2)[C@@H]2CC(C)(C)OC[C@]32C)cc1F` [Example 676, 3-(6-((4bR,8aR)-2-((3-fluoro-4-((1S,4S)-5-methyl-2,5-diazabicyclo[2.2.1]heptan-2-yl)phenyl)amino)-4b,7,7-trimethyl-4b,7,8,8a-tetrahydropyrano[3′,4′:4,5]pyrrolo[2,3-d]pyrimidin-9(5H)-yl)pyridin-2-yl)oxazolidin-2-one], the IC50 is 100 to 1000 nM in test [1] (setting [2]) and less than 10 nM against Wee1 kinase domain (setting [3]).
In the case of `CN1CCC(n2cc(Nc3ncc4c(n3)N(c3cccc(N=S(C)(C)=O)n3)[C@@H]3CC(C)(C)OC[C@]43C)cn2)C1` (stereo partly drawn) [Example 196, dimethyl((6-((4bR,8aR)-4b,7,7-trimethyl-2-((1-((R)-1-methylpyrrolidin-3-yl)-1H-pyrazol-4-yl)amino)-4b,7,8,8a-tetrahydropyrano[3′,4′:4,5]pyrrolo[2,3-d]pyrimidin-9(5H)-yl)pyridin-2-yl)imino)-16-sulfanone], the IC50 was 100 to 1000 nM in test [1] (A-427, pCDC2 MSD) and less than 10 nM at Wee1 kinase domain (Wee1 kinase domain, ADP-Glo).
With `CC1(C)C[C@H]2N(c3cccc(N=S(C)(C)=O)n3)c3nc(N)ncc3[C@@]2(C)CO1` (single isomer, unassigned) [Example 746], the IC50 in test [1] (setting [2]) was 100 to 1000 nM; on Wee1 kinase domain (setting [3]) it was less than 10 nM.
For `CC1(C)C[C@H]2N(c3cccc(N=S(C)(C)=O)n3)c3nc(Nc4ccc(C5CNC5)nc4)ncc3[C@@]2(C)CO1` (single isomer, unassigned) [Example 190], the IC50 is 100 to 1000 nM in test [1] (A-427, pCDC2 MSD) and less than 10 nM at Wee1 kinase domain (Wee1 kinase domain, ADP-Glo).
For `Cc1cc(Nc2ncc3c(n2)N(c2cccc(N4C(=O)OC[C@@H]4C)n2)[C@@H]2CC(C)(C)OC[C@]32C)ccc1O[C@@H]1CCN(C)C1` (single isomer, unassigned) [Example 347], the IC50 is 100 to 1000 nM in test [1] (A-427, pCDC2 MSD) and less than 10 nM against Wee1 kinase domain (Wee1 kinase domain, ADP-Glo).
Consider `CC1(C)C[C@H]2N(c3cccc(N4CCOC4=O)n3)c3nc(Nc4ccc([C@H]5CNCC5(F)F)cc4)ncc3[C@@]2(C)CO1` [Example 682, 3-(6-((4bR,8aR)-2-((4-((S)-4,4-difluoropyrrolidin-3-yl)phenyl)amino)-4b,7,7-trimethyl-4b,7,8,8a-tetrahydropyrano[3′,4′:4,5]pyrrolo[2,3-d]pyrimidin-9(5H)-yl)pyridin-2-yl)oxazolidin-2-one], for which the IC50 in test [1] (setting [2]) is 100 to 1000 nM; on Wee1 kinase domain (setting [3]) it was less than 10 nM.
For the compound `CNCc1cccc(N2c3nc(Nc4ccc5c(c4)C(=O)N(C)C5)ncc3[C@@]3(C)COC(C)(C)C[C@@H]23)n1` (single isomer, unassigned) [Example 32], the IC50 in test [1] (A-427, pCDC2 MSD) is 100 to 1000 nM; on Wee1 kinase domain (Wee1 kinase domain, ADP-Glo), less than 10 nM.
With `CN1CCC(n2cc(Nc3ncc4c(n3)N(c3cccc(N=S(C)(C)=O)n3)[C@@H]3CC(C)(C)OC[C@]43C)cn2)CC1` (single isomer, unassigned) [Example 102], the IC50 is 100 to 1000 nM in test [1] (A-427, pCDC2 MSD) and less than 10 nM against Wee1 kinase domain (Wee1 kinase domain, ADP-Glo).
Regarding `CN1CC[C@@H](c2ccc(Nc3ncc4c(n3)N(c3cccc(N5CCCC5=O)n3)[C@@H]3CC(C)(C)OC[C@]43C)cc2)C1` [Example 642, 1-(6-((4bR,8aR)-4b,7,7-trimethyl-2-((4-((S)-1-methylpyrrolidin-3-yl)phenyl)amino)-46,7,8,8a-tetrahydropyrano[3′,4′:4,5]pyrrolo[2,3-d]pyrimidin-9(5H)-yl)pyridin-2-yl)pyrrolidin-2-one], the IC50 in test [1] (setting [2]) is 100 to 1000 nM; against Wee1 kinase domain (setting [3]), less than 10 nM.
Turning to `CC1(C)C[C@H]2N(c3cccc(N=S(C)(C)=O)n3)c3nc(Nc4ccc(N5CCOCC5)nc4)ncc3[C@@]2(C)CO1` (single isomer, unassigned) [Example 493], the IC50 is 100 to 1000 nM in test [1] (setting [2]) and less than 10 nM on Wee1 kinase domain (setting [3]).
`C[C@H]1COC(=O)N1c1cccc(N2c3nc(Nc4ccc(N5CC6(CN(C)C6)C5)cc4)ncc3[C@@]3(C)COC(C)(C)C[C@@H]23)n1` (single isomer, unassigned) [Example 355]: the IC50 in test [1] (A-427, pCDC2 MSD) was 100 to 1000 nM; against Wee1 kinase domain (Wee1 kinase domain, ADP-Glo), less than 10 nM.
Regarding `Cc1cc(Nc2ncc3c(n2)N(c2cccc(N4CCOC4=O)n2)[C@@H]2CC(C)(C)OC[C@]32C)ccc1C1CCN(C)CC1` (single isomer, unassigned) [Example 597], the 50% inhibitory concentration (IC50) is 100 to 1000 nM in test [1] (setting [2]) and less than 10 nM at Wee1 kinase domain (setting [3]).
